Measured values as given in PubChem BioAssay AID493250 (Broad Institute, 2011).
The source made the active and inactive calls.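 How the source made its calls: active means signal decrease with fitted half-maximal dose at or below ten times the highest valid tested dose; inconclusive means poor fit, or flat fit at 30 to 70% inhibition; inactive means the rest.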

Each molecule was assayed against Zinc finger protein mex-5 (Caenorhabditis elegans) (UniProt Q9XUB2) (assay: inhibitors of MEX-5 RNA binding, dose response, biochemical, fluorescence polarization, C. elegans, cherry-picked, round 3 (AID 493250)). Settings: purified MEX-5-MBP, FITC-TCR2 RNA fluorescence polarization.
Chain of Zinc finger protein mex-5 (Caenorhabditis elegans) (Q9XUB2 whole entry, looked up): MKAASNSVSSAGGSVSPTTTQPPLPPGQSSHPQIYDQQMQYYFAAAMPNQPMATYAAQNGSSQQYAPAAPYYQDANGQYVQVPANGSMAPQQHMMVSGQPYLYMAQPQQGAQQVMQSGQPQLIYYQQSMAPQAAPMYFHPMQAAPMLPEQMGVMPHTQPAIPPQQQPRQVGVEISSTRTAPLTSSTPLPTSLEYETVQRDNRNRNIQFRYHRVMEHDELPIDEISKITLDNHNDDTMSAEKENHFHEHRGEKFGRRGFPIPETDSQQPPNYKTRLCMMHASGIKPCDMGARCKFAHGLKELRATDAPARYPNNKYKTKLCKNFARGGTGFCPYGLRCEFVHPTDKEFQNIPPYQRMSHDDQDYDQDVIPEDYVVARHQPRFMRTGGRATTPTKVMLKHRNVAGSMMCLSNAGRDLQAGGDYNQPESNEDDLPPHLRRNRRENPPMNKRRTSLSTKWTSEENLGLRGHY

SMILES	AC50
COc1ccc(Cl)cc1CN1CCN(c2nc(C)cc(C)c2C#N)CC1	9.41 µM
COc1ccc(NS(=O)(=O)c2cccc(C(=O)NNC(=O)c3cc(S(N)(=O)=O)ccc3OC)c2)cc1	> 10 µM (inactive)
COc1ccc(NC(=O)c2cccc(-c3ccc(O)cc3)c2)cn1	3.91 µM
O=C1C(Br)=Cc2cccc3cccc1c23	3.06 µM
CCN(CC)Cc1c(O)ccc2c1O/C(=C\C=C\c1ccccc1)C2=O	4.38 µM
CCOC(=O)/C(=C/c1ccc(N2CCC(c3ccccc3)=N2)cc1)C(C)=O	2.43 µM

Same assay, conditions: purified MEX-5-MBP, FITC-TCR2 RNA fluorescence polarization; at 10 µM (top of the series)

SMILES	activity change, negative = inhibition
COc1ccc(/C=N/NC(=O)c2ccc(=O)[nH]n2)cc1OC	inactive
CC(=O)Nc1ccc(-c2csc(Nc3cccc(C)n3)n2)cc1	inactive
O=c1[nH]cnc2c1C(c1ccccc1[N+](=O)[O-])c1c(nc[nH]c1=O)O2	inactive
Nc1c(C(=O)Nc2ccccc2)sc2nc3c(c(-c4ccco4)c12)CCC3	inactive
N#C/C(C(N)=O)=C1/CCc2ccccc2N1	inactive
CCc1nc2ccccc2c(=O)n1/N=C/c1ccc(OC)cc1	inactive
COc1ccc(CCn2c(=N)c(C(=O)NCC3CCCO3)cc3c(=O)n4cccc(C)c4nc32)cc1 (centres undefined)	inactive
COc1ccccc1N=Nc1c(C)[nH][nH]c1=O	inactive
C#CCOCCOCCOCCNc1nc(N2CCN(C(=O)[C@H](CCCCN)n3cc(C(N)CO)nn3)CC2)nc(N2CCN(C(=O)[C@H](CCC(=O)O)n3cc(C(N)CC(C)C)nn3)CC2)n1 (some centres undefined)	inactive
Cc1ccc2c(c1Cl)NC(C(=O)O)C1CC(Sc3ccccc3[N+](=O)[O-])C(Cl)C21 (centres undefined)	inactive
CCOc1cc(/C=N/NC(=O)N/N=C/c2ccc(O)c(OCC)c2)ccc1O	inactive
COc1ccc(CCNc2c3ccccc3nc3ccccc23)cc1OC	inactive
COC(=O)c1cc2c(-c3ccccc3)c(C)c3ccccn3c-2c1C(=O)OC	inactive
COc1ccc(C(CC(=O)N2CCCC2)c2c(OC)cc(OC)c3ccc(=O)oc23)cc1 (centres undefined)	inactive
CCOC(=O)C1CSc2[nH]c(=O)sc2C1c1ccccc1 (centres undefined)	inactive
Cc1c(NC(=O)c2ccc(=O)oc2)c(=O)n(-c2ccccc2)n1C	inactive
O=C(O)Cn1c(O)c(C2=c3ccccc3=NC2=O)sc1=O	inactive
CCOC(=O)c1cnc(SCC(=O)NNC(=O)c2ccco2)nc1N	inactive
CCNC(=S)NNC(=O)c1ccccn1	inactive
Cc1ccc(C(=O)N/C(=C\c2ccc(-c3ccc(Cl)cc3)o2)C(=O)NCCCN(C)C)cc1	inactive
Cc1cc(/C=C2\C(=O)NC(=O)N(c3cccc(F)c3)C2=O)c(C)n1-c1cc(C(=O)O)cc(C(=O)O)c1	inactive
COc1ccc(OC)c(/C=C/C(=O)Nc2ccc(OC)nc2)c1	inactive

SMILES	activity change, negative = inhibition
CCN=c1scc(-c2ccco2)n1/N=C/c1ccc(O)cc1	inactive
O=C(O)c1ccc(/C=C2\SC(=S)N(Nc3ccccc3)C2=O)cc1	inactive
NC(=O)C(=O)N/N=C1\CCc2ccccc21	inactive
O=[N+]([O-])c1ccc(C2=CSC3=NCCN23)cc1	inactive
Oc1c(Cl)cc(Cl)c2c1NCCC2	inactive
CC(=O)c1c2c3c(c(Br)ccc3n(C)c1=O)C(=O)c1ccccc1-2	inactive
O=C(O)CCC(=O)NNc1ncnc2ccccc12	inactive
Nc1nonc1C(=O)N/N=C/c1cc(Br)ccc1O	inactive
Cc1nn(C(C)C(=O)NNC(=S)Nc2ccc(Cl)cc2)c(C)c1[N+](=O)[O-] (centres undefined)	inactive
CN1CCc2nc3sc(C(=O)NC(C)(C)C)c(N)c3cc2C1	inactive
COC(=O)C1CSc2[nH]c(=O)sc2C1c1ccc(O)c(OC)c1 (centres undefined)	inactive
Cc1nc2c(N=Nc3ccccc3F)c(N)nn2c(N)c1C#N	inactive
CC1=NN(C(N)=S)C(=O)C1N=Nc1cccc(Cl)c1C (centres undefined)	inactive
COCc1cc(C)nc(N/N=C/c2ccc(-c3cc(C(=O)O)ccc3Cl)o2)c1C#N	inactive
CCOc1ccc(N2C(=O)C(Cl)=C(Nc3ccccc3O)C2=O)cc1	inactive
Nc1ccccc1C(=O)NNC(=O)C(=O)/C=C(\O)c1ccccc1	inactive
Oc1ccc(/C=N/N2CCOCC2)c(O)c1O	inactive
O=c1[nH]nc(CNc2ccc(OC(F)(F)F)cc2)c2ccccc12	inactive
CCOc1cc(/C=N/Nc2nc(=O)[nH]nc2C)ccc1O	inactive
COc1cc(OC)c2ccc(=O)oc2c1C(CC(=O)N1CCCC1)c1ccc(N(C)C)cc1 (centres undefined)	inactive
Nc1cc(C(=O)O)c(Oc2ccc(Cl)cc2Cl)cc1C(=O)O	inactive
COc1ccc(NC(=O)/C=C/c2cccc(C(F)(F)F)c2)cn1	inactive

SMILES	activity change, negative = inhibition
O=C(O)c1ccc2c(c1)ncn2C1CCCCC1	inactive
O=C(NNC(=O)c1ccc(O)c(Cl)c1)c1cccc(S(=O)(=O)N2CCOCC2)c1	inactive
COc1cc2c(cc1OC)-c1c(OC)c(OC)cc3c1C(C2)N(C)CC3 (centres undefined)	inactive
O=C(Cc1csc(N2CCOCC2)n1)N/N=C/c1ccc(O)c(O)c1O	inactive
COc1ccc(N(CCC#N)C(=O)/C(C#N)=C\c2cccs2)cc1	inactive
Cn1ncc2c(NNC(=O)c3ccccc3Cl)ncnc21	inactive
CC1(C)NC(=O)NC2(C)NC(=O)NC(C)(C)C12 (centres undefined)	inactive
COc1ccc2c(c1)-c1ccccc1S(=O)(=O)N2C(C)=O	inactive
Cc1cc(C)c2ccc(C(=O)O)nc2c1O	inactive
COc1ccccc1N1C(=O)S/C(=C\c2cccs2)C1=O	inactive
O=C(O)c1cc(Oc2ccc(C(F)(F)F)cc2Cl)ccc1[N+](=O)[O-]	inactive
CC(=O)Nc1ccc(N=NC2C(=O)N(C(N)=S)N=C2C)cc1 (centres undefined)	inactive
COc1ccc(NC(=O)c2coc(C)c2)cc1	inactive
NC(=O)C(=O)N/N=C/c1c2ccccc2cc2ccccc12	inactive
O=[N+]([O-])c1cc(S(=O)(=O)c2ccc(O)c([N+](=O)[O-])c2)ccc1O	inactive
Oc1ccc(C2C=C(c3ccc(F)cc3)Nc3ncnn32)cc1 (centres undefined)	inactive
COc1ccc(-c2cn[nH]c2-c2ccc(OCC(=O)NN)cc2O)cc1	inactive
CC1CN2C(c3ccc([N+](=O)[O-])cc3)=CSC2=N1 (centres undefined)	inactive
CC(=O)N1C(=O)/C(=C2\SC(=S)N(NC(=O)c3ccc(O)cc3)C2=O)c2ccccc21	inactive
CCC(=O)N(CC)C1=C(O)c2ccccc2C(=O)C1=O	inactive
COc1cccc(NCc2cc(=O)oc3cc(C)c(O)cc23)c1	inactive
Cc1c(N=Cc2cc3c(cc2[N+](=O)[O-])OCO3)cccc1[N+](=O)[O-]	inactive

SMILES	activity change, negative = inhibition
CCN(CC)c1ccc2nc3ccccc3[n+](CC)c2c1	inactive
CCCc1cc(C(=O)Cc2ccc(C(=O)OCC)o2)c(O)cc1O	inactive
CC(C)C(=O)OCC(=O)Nc1ccc2c(c1)CCC2	inactive
COc1ccc(/C=N/NC(=S)Nc2cccc(C(=O)O)c2)cc1	inactive
CCOc1cc(/C=N/n2c(C)nc3ccccc3c2=O)ccc1O	inactive
COc1ccc(OC)c(/C=N/NC(=O)c2ccc(=O)[nH]n2)c1	inactive
C=CCn1c(O)c(N=NC(=S)Nc2cccc(C)c2)c2ccccc21	inactive
Cc1ccc(C(=O)N/C(=C\c2ccc(-c3ccccc3[N+](=O)[O-])o2)C(=O)NCCN(C)C)cc1	inactive
Cc1cccc(/C=N/NC(=O)Cn2nnnc2N)n1	inactive
CCCCCOP(=O)(OCCCCC)C1(NS(=O)(=O)c2ccccc2)C=CC(=O)c2ccccc21 (centres undefined)	inactive
Cc1cc(=O)n2[nH]c(N)c(N=Nc3ccccc3F)c2n1	inactive
COCCNc1ncnc2nc[nH]c12	inactive
O=C(NNC(=O)c1ccccc1Cl)c1csc(N2CCOCC2)n1	inactive
Oc1cccc(NC(=S)N=Nc2c(O)[nH]c3ccccc23)c1	inactive
CCOc1ccc2nc(N=Nc3c(O)[nH]c(=O)[nH]c3=O)sc2c1	inactive
O=c1[nH]cnc2c1C(c1ccc(Cl)cc1)c1c(nc[nH]c1=O)O2	inactive
Cc1cccc(C(=O)NNC(=O)c2ccco2)c1O	inactive
CCS(=O)(=O)c1ccc2oc(=O)c(/C=C(\O)c3ccc(Cl)cc3)nc2c1	inactive
O=C(Nc1cccc2ncccc12)c1ccccc1[N+](=O)[O-]	inactive
CCCCn1c(N)c(N(CCOC)C(=O)c2ccc(Br)o2)c(=O)[nH]c1=O	inactive
N=C1C(c2nc3ccccc3[nH]2)=C(O)CN1c1ccc(F)cc1	inactive
Cc1c(Br)c(=O)oc2c(Br)c(O)c(O)cc12	inactive
